| Structure (SMILES) | melting point [°C] |
| --- | --- |
| COc1cc2c(-c3cc4c(Cl)ccnc4[nH]3)cn(CCN3CCN(C)CC3)c2cc1OC [Example 101, 4-chloro-2-{5,6-dimethoxy-1-[2-(4-methylpiperazin-1-yl)ethyl]-1H-indol-3-yl}-1H-pyrrolo[2,3-b]pyridine] | 192 |
| COc1cc2c(-c3cc4c(Cl)ccnc4[nH]3)cn(CCN3CCOCC3)c2cc1OC [Example 99, 4-chloro-2-[5,6-dimethoxy-1-(2-morpholin-4-ylethyl)-1H-indol-3-yl]-1H-pyrrolo[2,3-b]pyridine] | 240 |
| COc1cc(OC)c2c(c1)c(-c1cc3cccnc3[nH]1)cn2C [Example 175, 2-(5,7-Dimethoxy-1-methyl-1H-indol-3-yl)-1H-pyrrolo[2,3-b]pyridine] | 220 |
| COc1cc2c(-c3cc4c(Cl)ccnc4[nH]3)cn(CCN3CCC(CCO)CC3)c2cc1OC [Example 100, 2-(1-{2-[3-(4-chloro-1H-pyrrolo[2,3-b]pyridin-2-yl)-5,6-dimethoxyindol-1-yl]ethyl}piperidin-4-yl)ethanol] | 200 |
| COc1cc2c(-c3cc4c(C#N)ccnc4[nH]3)cn(CCN3CCN(C)CC3)c2cc1OC [Example 102, 2-{5,6-dimethoxy-1-[2-(4-methylpiperazin-1-yl)ethyl]-1H-indol-3-yl}-1H-pyrrolo[2,3-b]pyridine-4-carbonitrile] | 196 |

The remaining lines, values ahead:

| melting point [°C] | Structure (SMILES) |
| --- | --- |
| 205 to 210 | COc1cc2c(-c3cc4cc(F)cnc4[nH]3)cn(CCN3CCOCC3)c2cc1OC [Example 105, 2-[5,6-dimethoxy-1-(2-morpholin-4-ylethyl)-1H-indol-3-yl]-5-fluoro-1H-pyrrolo[2,3-b]pyridine] |
| 188 | COc1cc2c(-c3cc4cc(F)cnc4[nH]3)cn(CCN3CCN(C)CC3)c2cc1OC [Example 106, 2-{5,6-Dimethoxy-1-[2-(4-methylpiperazin-1-yl)ethyl]-1H-indol-3-yl}-5-fluoro-1H-pyrrolo[2,3-b]pyridine] |
| 192 | COc1cc2c(-c3cc4cc(Cl)cnc4[nH]3)cn(C)c2cc1OC [Example 103, 5-chloro-2-(5,6-dimethoxy-1-methyl-1H-indol-3-yl)-1H-pyrrolo[2,3-b]pyridine] |
| 283 | COc1cc2c(-c3cc4cc(F)cnc4[nH]3)cn(C)c2cc1OC [Example 104, 2-(5,6-dimethoxy-1-methyl-1H-indol-3-yl)-5-fluoro-1H-pyrrolo[2,3-b]pyridine] |
